Measurements: publication PMC4853478 (Nature Communications, 2016)

Tests used:
[1] = target: PRC2; parameters: method as in PMID 24304166; details: activated versus basal PRC2; cited from earlier work
[2] = target: T1, HsPRC2_4 (Homo sapiens, UniProt Q15910); assay: Inhibition of basal and activated states of HsPRC2_4; type: biochemical; details: for Ki: SAM above Km, mean of two independent experiments
T1 construct: intact HsPRC2_4 (full-length EZH2 (EZH2_FL) and SUZ12 co-migrate on SDS-PAGE); made in house; host or cells: Sf9 insect cells (baculovirus co-infection)

[3] = target: T1, HsPRC2_4; assay: Radioactive filter-binding histone methyltransferase assay, intact HsPRC2_4, oligonucleosome substrate; type: biochemical
Source text: (§1) (Prism, Graphpad Software Inc.).

[4] = target: T2, HsPRC2_4 (Y111L) (Homo sapiens, UniProt Q15910, Y111L); assay: Radioactive filter-binding histone methyltransferase assay, HsPRC2_4 (Y111L), oligonucleosome substrate; type: biochemical
T2 construct: intact HsPRC2_4 (full-length EZH2 (EZH2_FL) and SUZ12 co-migrate on SDS-PAGE); made in house; host or cells: Sf9 insect cells (baculovirus co-infection)
Source text: as §1

[5] = target: T3, HsPRC2_4 (Y641N) (Homo sapiens, UniProt Q15910, Y641N); assay: Radioactive filter-binding histone methyltransferase assay, HsPRC2_4 (Y641N), oligonucleosome substrate; type: biochemical
T3 construct: intact HsPRC2_4 (full-length EZH2 (EZH2_FL) and SUZ12 co-migrate on SDS-PAGE); made in house; host or cells: Sf9 insect cells (baculovirus co-infection)
Source text: as §1

[6] = target: Hs/AcPRC2_X (Anolis carolinensis, UniProt G1KPH4, DEL368-454, form not given); details: rH3 substrate; n=2, mean±s.d.
[7] = target: T4, HsPRC2_4 (Y641N/Y661D) (Homo sapiens, UniProt Q15910, Y641N/Y661D); assay: Radioactive filter-binding histone methyltransferase assay, HsPRC2_4 (Y641N/Y661D), oligonucleosome substrate; type: biochemical
T4 construct: intact HsPRC2_4 (full-length EZH2 (EZH2_FL) and SUZ12 co-migrate on SDS-PAGE); made in house; host or cells: Sf9 insect cells (baculovirus co-infection)
Source text: as §1

[8] = oligonucleosome substrate, n=2, mean±s.d.

T1 sequence (Q15910 whole entry): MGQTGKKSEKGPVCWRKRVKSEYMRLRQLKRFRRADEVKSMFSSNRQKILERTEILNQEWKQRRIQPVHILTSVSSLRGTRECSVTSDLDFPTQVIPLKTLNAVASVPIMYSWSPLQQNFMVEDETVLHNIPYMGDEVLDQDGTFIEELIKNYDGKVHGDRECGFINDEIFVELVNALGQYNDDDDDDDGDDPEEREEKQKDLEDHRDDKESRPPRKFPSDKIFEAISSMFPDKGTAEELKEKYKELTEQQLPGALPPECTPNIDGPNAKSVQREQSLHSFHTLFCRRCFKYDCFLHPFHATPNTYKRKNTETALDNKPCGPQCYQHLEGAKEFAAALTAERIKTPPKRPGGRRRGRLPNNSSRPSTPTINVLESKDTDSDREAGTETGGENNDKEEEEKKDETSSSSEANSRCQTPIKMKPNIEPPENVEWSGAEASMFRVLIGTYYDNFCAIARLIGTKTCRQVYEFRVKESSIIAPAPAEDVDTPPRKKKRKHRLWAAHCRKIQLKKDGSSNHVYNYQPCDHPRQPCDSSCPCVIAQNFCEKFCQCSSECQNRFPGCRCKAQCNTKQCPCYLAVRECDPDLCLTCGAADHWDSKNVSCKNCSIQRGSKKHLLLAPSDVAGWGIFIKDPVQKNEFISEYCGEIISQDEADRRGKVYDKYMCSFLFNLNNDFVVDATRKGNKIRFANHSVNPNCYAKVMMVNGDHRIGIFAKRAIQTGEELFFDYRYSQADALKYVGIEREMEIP
T1 sequence (O75530 whole entry partner): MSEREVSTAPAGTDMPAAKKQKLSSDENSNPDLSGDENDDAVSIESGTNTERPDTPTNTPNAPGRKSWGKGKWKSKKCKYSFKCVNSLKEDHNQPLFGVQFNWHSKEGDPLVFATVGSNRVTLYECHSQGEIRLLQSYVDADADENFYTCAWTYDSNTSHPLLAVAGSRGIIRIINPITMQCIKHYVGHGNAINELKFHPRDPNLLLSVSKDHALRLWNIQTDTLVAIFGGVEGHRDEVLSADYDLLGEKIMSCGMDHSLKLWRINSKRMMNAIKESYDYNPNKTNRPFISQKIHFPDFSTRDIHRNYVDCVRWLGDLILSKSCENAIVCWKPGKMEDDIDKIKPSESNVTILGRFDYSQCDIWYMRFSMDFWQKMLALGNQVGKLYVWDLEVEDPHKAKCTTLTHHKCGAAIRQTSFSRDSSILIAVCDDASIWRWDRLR
T1 sequence (Q15022 whole entry partner): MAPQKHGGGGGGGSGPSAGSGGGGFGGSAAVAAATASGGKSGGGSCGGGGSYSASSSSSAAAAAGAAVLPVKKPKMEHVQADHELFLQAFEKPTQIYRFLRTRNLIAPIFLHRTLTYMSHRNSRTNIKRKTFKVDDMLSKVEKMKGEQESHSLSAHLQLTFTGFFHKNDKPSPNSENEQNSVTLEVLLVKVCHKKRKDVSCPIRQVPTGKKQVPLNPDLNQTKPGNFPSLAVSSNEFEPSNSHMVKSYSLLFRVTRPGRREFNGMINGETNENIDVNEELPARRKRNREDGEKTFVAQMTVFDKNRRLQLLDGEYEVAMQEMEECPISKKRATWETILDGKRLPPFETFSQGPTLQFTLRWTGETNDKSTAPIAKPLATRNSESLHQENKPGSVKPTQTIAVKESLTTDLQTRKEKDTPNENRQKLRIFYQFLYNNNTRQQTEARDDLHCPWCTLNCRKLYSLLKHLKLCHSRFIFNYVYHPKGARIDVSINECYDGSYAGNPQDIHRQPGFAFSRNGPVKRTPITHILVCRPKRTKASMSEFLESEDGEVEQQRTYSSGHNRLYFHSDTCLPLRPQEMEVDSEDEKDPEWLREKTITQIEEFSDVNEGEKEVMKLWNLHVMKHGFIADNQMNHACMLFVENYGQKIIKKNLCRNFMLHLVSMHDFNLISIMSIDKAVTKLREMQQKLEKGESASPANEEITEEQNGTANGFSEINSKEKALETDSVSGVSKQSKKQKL
T1 sequence (Q09028 whole entry partner): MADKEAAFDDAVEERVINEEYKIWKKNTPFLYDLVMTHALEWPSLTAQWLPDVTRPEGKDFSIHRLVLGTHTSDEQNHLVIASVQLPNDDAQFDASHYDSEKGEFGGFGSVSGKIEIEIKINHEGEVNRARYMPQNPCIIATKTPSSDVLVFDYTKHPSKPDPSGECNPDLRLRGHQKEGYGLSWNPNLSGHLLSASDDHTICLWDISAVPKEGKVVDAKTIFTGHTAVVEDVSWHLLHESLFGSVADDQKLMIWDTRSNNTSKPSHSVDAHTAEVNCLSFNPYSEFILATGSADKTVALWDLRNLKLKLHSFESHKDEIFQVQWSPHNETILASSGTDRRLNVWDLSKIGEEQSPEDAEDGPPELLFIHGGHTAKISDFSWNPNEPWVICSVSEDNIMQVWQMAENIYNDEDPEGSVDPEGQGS
T4 sequence (Q15910 whole entry Y641N/Y661D): as the sequence (Q15910 whole entry) above, with Y641N, Y661D counted along it
T4 sequence (O75530 whole entry partner): as the sequence (O75530 whole entry partner) above
T4 sequence (Q15022 whole entry partner): as the sequence (Q15022 whole entry partner) above
T4 sequence (Q09028 whole entry partner): as the sequence (Q09028 whole entry partner) above
T2 sequence (Q15910 whole entry Y111L): as the sequence (Q15910 whole entry) above, with Y111L counted along it
T2 sequence (O75530 whole entry partner): as the sequence (O75530 whole entry partner) above
T2 sequence (Q15022 whole entry partner): as the sequence (Q15022 whole entry partner) above
T2 sequence (Q09028 whole entry partner): as the sequence (Q09028 whole entry partner) above
T3 sequence (Q15910 whole entry Y641N): as the sequence (Q15910 whole entry) above, with Y641N counted along it
T3 sequence (O75530 whole entry partner): as the sequence (O75530 whole entry partner) above
T3 sequence (Q15022 whole entry partner): as the sequence (Q15022 whole entry partner) above
T3 sequence (Q09028 whole entry partner): as the sequence (Q09028 whole entry partner) above
Sequence of Hs/AcPRC2_X (G1KPH4 entry or part of it DEL368-454, form open): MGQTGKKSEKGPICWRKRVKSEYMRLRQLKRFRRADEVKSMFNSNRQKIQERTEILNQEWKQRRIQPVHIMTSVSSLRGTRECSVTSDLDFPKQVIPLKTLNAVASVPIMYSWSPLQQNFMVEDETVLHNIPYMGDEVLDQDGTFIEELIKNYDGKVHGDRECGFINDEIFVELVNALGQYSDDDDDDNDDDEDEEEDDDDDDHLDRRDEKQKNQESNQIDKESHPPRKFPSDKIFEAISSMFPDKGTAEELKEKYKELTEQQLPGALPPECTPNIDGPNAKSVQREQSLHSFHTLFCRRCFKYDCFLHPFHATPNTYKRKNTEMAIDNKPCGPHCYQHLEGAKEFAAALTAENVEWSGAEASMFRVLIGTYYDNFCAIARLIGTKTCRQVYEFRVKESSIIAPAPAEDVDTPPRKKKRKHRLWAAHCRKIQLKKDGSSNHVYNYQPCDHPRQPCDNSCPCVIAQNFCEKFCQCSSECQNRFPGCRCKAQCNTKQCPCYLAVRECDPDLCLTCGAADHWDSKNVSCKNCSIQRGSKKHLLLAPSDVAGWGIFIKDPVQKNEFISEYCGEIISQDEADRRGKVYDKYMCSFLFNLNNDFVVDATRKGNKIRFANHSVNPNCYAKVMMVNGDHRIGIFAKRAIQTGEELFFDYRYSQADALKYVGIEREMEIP
Sequence of Hs/AcPRC2_X (Q15022 545-726 S583D, form open, further chain): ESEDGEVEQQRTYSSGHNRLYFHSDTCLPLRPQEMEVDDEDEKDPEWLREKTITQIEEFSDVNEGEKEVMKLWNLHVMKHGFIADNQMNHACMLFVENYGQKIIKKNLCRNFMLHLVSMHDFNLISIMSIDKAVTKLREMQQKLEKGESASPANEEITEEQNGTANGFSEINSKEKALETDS
Sequence of Hs/AcPRC2_X (O75530 81-441, stated change not applied, form open, further chain): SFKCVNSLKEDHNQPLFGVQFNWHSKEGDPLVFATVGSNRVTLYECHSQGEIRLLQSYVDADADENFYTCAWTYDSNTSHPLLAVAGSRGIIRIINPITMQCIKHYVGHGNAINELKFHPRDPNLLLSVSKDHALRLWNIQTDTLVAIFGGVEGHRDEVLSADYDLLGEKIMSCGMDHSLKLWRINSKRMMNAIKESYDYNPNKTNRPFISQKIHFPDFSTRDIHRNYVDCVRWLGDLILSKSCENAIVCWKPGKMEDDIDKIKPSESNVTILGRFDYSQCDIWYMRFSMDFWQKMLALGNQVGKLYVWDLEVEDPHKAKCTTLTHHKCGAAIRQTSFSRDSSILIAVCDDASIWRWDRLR

In the case of `CC[C@H](C)n1cc(C)c2c(C(=O)NCc3c(C)cc(C)[nH]c3=O)cc(-c3ccc(N4CCNCC4)nc3)cc21` [GSK126], the “Ki on activation of PRC2 by H3K27Me3 mark” value [1] is listed as “lower” and the “Residence time on activation of PRC2 by H3K27Me3 mark” value [1] is listed as “increased”.
Work on `C[S+](CC[C@H](N)C(=O)[O-])C[C@H]1O[C@@H](n2cnc3c(N)ncnc32)[C@H](O)[C@@H]1O` (stereo partly drawn) [SAM, S-adenosyl-L-methionine, reference compound] yielded a Km ([2]; intact HsPRC2_4 complex, read-out: Km, SAM) of 1.5 µM.
With `CCc1cc(C)[nH]c(=O)c1CN1CCc2c(Cl)cc(OC3CCN(C(=O)C(C)O)CC3)c(Cl)c2C1=O` (stereo not drawn) [inhibitor 1] the “Mode of inhibition (IC50 as a function of (SAM)/Km)” value ([3]; HsPRC2_4, linear relationship of IC50 with (SAM)/Km, two independent experiments) was “SAM-competitive”, the Ki [3, 8] was 1.63 ± 0.13 nM and the Biochemical inhibition ([4]; Y111L HsPRC2_4) was “refractory”. The Ki [4, 8] was 116.4 ± 0.7 nM, the Sensitivity to inhibitor ([5]; Y641N HsPRC2_4) was “sensitive” and the Ki [5, 8] was 4.56 ± 0.16 nM. For the same molecule, the Ki [6] was 3.1 ± 0.11 nM, the Biochemical inhibition ([7]; Y641N/Y661D HsPRC2_4) was “refractory” and the Ki [7, 8] was 204 ± 16 nM. For the same molecule, the “Inhibition profile, basal versus stimulated state” value ([2]; basal and stimulated states of HsPRC2_4) was “almost identical”, the Ki ([2]; in the presence of the activator peptide H3K27Me3 (21-44)) was 0.65 nM and the Ki ([2]; no activator) was 0.89 nM.
